Experimental data from patent publication US10093675B2, “6,8-disubstituted-9-(heterocyclyl)purines, compositions containing these derivatives and their use in cosmetic and medicinal applications” (USTAV EXPERIMENTALNI BOTANIKY AV CR, V.V.I., priority 2014, dated 2018).

How the values were obtained:
[1] = system: human diploid fibroblasts (HDF cells; HDF25, HDF45, HDF80); assay: Inhibition of human cell aging: senescent cells by beta-galactosidase staining; assay type: cell-based; conditions: for SENESCENT CELLS (%) HDF25: human diploid fibroblasts passage 25, beta-galactosidase staining; for SENESCENT CELLS (%) HDF45: human diploid fibroblasts passage 45, beta-galactosidase staining; for SENESCENT CELLS (%) HDF80: human diploid fibroblasts passage 80, beta-galactosidase staining
Procedure, shortened: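 Cells of passages 25, 45 and 80 fixed 5 min at room temperature in 2% formaldehyde/0.2% glutaraldehyde in PBS, then incubated at 37° C with beta-galactosidase substrate. Senescent cells identified by blue staining.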

[2] = system: excised wheat leaf tips (Triticum aestivum cv. Hereward); assay: Senescence inhibition on winter wheat leaf segments (retention of chlorophyll); assay type: in vivo; conditions: 10^−4 mol/L; 96 hours in the dark; activity of kinetin set at 100%
Procedure, shortened: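 First-leaf tips from 7-day-old wheat seedlings stood with their bases in test solution for 96 h in the dark at 25° C. Chlorophyll was then extracted in hot 80% ethanol and read at 665 nm. Activity at each compound's best concentration is relative to 10^−4 M kinetin (100%), as means of five replicates.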

[3] = Radical scavenging activity determined by ORAC (Oxygen Radical Absorbance Capacity); assay type: biochemical; conditions: Mean ± SD (n = 3); net area under the curve relative to trolox, equimolar basis
Protocol: The ability of compounds to scavenge free radicals in vitro was determined by Oxygen Radical Absorbance Capacity (ORAC) method. Fluorescein (100 μL, […]) and 25 μL of compound solution were added into each working well in a 96-well microplate preincubated at 37° C. Thereafter, 25 μL of 250 mM AAPH was quickly added, microplate was shaken for 5 s and the fluorescence (Ex. 485 nm, Em. 510 nm) was read every 3 min over 90 min by using microplate reader Infinite 200 (TECAN, Switzerland). The net area under the curve was used to express antioxidant activity relative to trolox which was used as a standard.

[4] = system: detached leaves of Triticum aestivum cv. Hereward; assay: Membrane lipid peroxidation (MDA, TBA method) in detached wheat leaves during dark senescence; assay type: in vivo; conditions: four days in the dark, Control 18.9 (±2.2)
Procedure, shortened: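 Leaf tips from 7-day wheat seedlings were kept with compound or kinetin for four days in the dark. 100 mg tissue was extracted in 80% methanol and heated 30 min at 95 °C with 0.5% TBA/0.1% TCA. MDA came from A532 minus A600, using 155 mM^−1cm^−1.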

Compound	SENESCENT CELLS (%) HDF25 [1] [%]	SENESCENT CELLS (%) HDF45 [1] [%]	SENESCENT CELLS (%) HDF80 [1] [%]	Activity (%) (s.d.), retention of chlorophyll [2]	ORAC (compound/trolox ratio) [3]	MDA (nmol/g FW) [4]
COc1cccc(CNc2ncnc3c2nc(Cl)n3C2CCCO2)c1 (stereo not shown) [Compound 69]	3	4	14	115 (±4) %	–	–
Fc1cccc(CNc2ncnc3c2nc(Br)n3C2CCCCO2)c1 (stereo not shown) [Compound 26]	2	5	19	117 (±5) %	–	–
COc1nc2c(NCc3ccco3)ncnc2n1C1CCCCO1 (stereo not shown) [Compound 124, 6-Furfurylamino-8-methoxy-9-(tetrahydropyran-2-yl)-9H-purine]	–	–	–	–	30.1 ± 3.1	10.3 (±0.7) nmol/g FW
Fc1ccc(CNc2ncnc3c2nc(Br)n3C2CCCCO2)cc1F (stereo not shown) [Compound 27]	2	4	21	124 (±4) %	–	–
C/C(=C\CNc1ncnc2c1nc(Br)n2C1CCCCO1)CO (stereo not shown) [Compound 24, (E)-8-Bromo-6-(4-hydroxy-3-methylbut-2-en-1-ylamino)-9-(tetrahydropyran-2-yl)-9H-purine]	3	5	21	123 (±6) %	–	11.4 (±0.9) nmol/g FW
C/C(=C\CNc1ncnc2c1nc(Cl)n2C1CCCO1)CO (stereo not shown) [Compound 64]	3	4	8	123 (±4) %	–	–
CSc1nc2c(NCc3ccco3)ncnc2n1C1CCCCO1 (stereo not shown) [Compound 145, 6-Furfurylamino-8-methylsulfanyl-9-(tetrahydropyran-2-yl)-9H-purine]	–	–	–	–	1.3 ± 0.1	9.6 (±0.8) nmol/g FW
